Reference: ChEMBL document CHEMBL1131387, “Dimers of 5HT1 ligands preferentially bind to 5HT1B/1D receptor subtypes” (Bioorg Med Chem Lett, 1998)

Columns and labels:
[1] = molecular target: T1, 5-hydroxytryptamine receptor 1B (Homo sapiens, UniProt P28222); assay: The intrinsic activity was evaluated for its ability to inhibit forskolin-stimulated c-AMP formation mediated by cloned 5-hydroxytryptamine 1B receptor in CHO cell line; Partial Agonist; assay type: functional, cell-based
[2] = molecular target: 5-hydroxytryptamine receptor 1D (Homo sapiens, UniProt P28221); assay: Binding affinity was evaluated at human recombinant 5-hydroxytryptamine 1D receptor using [3H]-5-CT as radioligand
[3] = molecular target: T1, 5-hydroxytryptamine receptor 1B; assay: Binding affinity was evaluated at human recombinant 5-hydroxytryptamine 1B receptor using [3H]5-CT as radioligand
[4] = molecular target: T2, 5-hydroxytryptamine receptor 1A (Homo sapiens, UniProt P08908); assay: Binding affinity was evaluated at human recombinant 5-hydroxytryptamine 1A receptor using [3H]8-OH-DPAT as radioligand
T2 sequence (P08908 whole entry): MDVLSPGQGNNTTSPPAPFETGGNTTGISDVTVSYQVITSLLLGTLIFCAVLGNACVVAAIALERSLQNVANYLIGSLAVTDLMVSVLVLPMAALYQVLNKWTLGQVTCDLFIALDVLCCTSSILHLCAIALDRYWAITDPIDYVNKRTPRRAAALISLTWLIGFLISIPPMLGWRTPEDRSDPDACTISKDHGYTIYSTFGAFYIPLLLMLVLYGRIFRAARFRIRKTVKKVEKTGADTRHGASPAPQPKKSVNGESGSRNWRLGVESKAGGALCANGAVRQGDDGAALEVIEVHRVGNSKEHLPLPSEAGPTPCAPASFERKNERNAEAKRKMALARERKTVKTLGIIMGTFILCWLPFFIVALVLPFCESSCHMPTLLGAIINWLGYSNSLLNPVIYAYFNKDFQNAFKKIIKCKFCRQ

[5] = molecular target: T1, 5-hydroxytryptamine receptor 1B; assay: The intrinsic activity was evaluated for its ability to inhibit forskolin-stimulated c-AMP formation mediated by cloned 5-hydroxytryptamine 1B receptor in CHO cell line; Antagonist; assay type: functional, cell-based
[6] = molecular target: T1, 5-hydroxytryptamine receptor 1B; assay: The intrinsic activity was evaluated for its ability to inhibit forskolin-stimulated c-AMP formation mediated by cloned 5-hydroxytryptamine 1B receptor in CHO cell line; assay type: functional, cell-based

T1 sequence (P28222 whole entry): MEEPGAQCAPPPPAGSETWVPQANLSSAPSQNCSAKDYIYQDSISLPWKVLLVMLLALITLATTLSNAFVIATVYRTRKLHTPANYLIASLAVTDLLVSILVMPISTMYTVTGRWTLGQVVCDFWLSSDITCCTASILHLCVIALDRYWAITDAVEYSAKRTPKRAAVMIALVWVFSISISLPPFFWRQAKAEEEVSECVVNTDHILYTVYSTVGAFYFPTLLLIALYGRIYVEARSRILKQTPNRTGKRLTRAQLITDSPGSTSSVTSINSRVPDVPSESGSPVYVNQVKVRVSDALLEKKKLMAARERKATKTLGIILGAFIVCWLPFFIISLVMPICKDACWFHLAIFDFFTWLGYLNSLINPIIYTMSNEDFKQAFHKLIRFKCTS
Chain of 5-hydroxytryptamine receptor 1D (P28221 whole entry): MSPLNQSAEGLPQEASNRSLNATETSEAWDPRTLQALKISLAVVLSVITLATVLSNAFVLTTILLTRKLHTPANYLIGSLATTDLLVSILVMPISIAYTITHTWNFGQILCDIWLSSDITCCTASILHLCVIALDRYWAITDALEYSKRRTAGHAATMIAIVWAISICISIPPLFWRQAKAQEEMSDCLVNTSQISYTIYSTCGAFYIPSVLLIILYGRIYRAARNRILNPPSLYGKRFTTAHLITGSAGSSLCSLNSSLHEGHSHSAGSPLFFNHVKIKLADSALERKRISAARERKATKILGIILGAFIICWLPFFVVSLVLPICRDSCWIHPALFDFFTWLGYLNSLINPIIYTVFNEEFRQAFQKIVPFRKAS

SMILES | EC50 [1] | Ki [2] [nM] | Ki [3] [nM] | Ki [4] [nM] | EC50 [5] [nM] | EC50 [6] [nM]
CN1CCN(c2cccc3ccc(OCCOc4ccc5[nH]cc(CCN)c5c4)cc23)CC1 | Partial agonist | 0.4 | 0.76 | 0.96 | – | –
CN1CCN(c2cccc3ccc(OCC(=O)N4CCN(C(=O)COc5ccc6cccc(N7CCN(C)CC7)c6c5)CC4)cc23)CC1 | Partial agonist | 1.24 | 2.56 | 4 | – | –
c1ccc2c(N3CCNCC3)cccc2c1 | – | – | 10.6 | – | > 10000 | –
CN1CCN(c2cccc3ccc(OCCOc4ccc5cccc(N6CCN(C)CC6)c5c4)cc23)CC1 | – | 1.71 | 2.1 | 14 | > 1000 | –
CN1CCN(c2cccc3ccc(OCC(=O)Nc4ccc(NC(=O)COc5ccc6[nH]cc(CCN)c6c5)cc4)cc23)CC1 | Partial agonist | 0.5 | 0.7 | 5.8 | – | –
CCCN(CCC)C1CCc2cccc(OCCCCCCOc3cccc4c3CC(N(CCC)CCC)CC4)c2C1 (configuration not stated) | – | 3.9 | 6.4 | 6.8 | – | 50
